In brackets after ≈: the same amount, converted by molar mass.
Legend:
Assay in all cases: in vitro antibacterial activity (MIC), agar dilution
Type in all cases: cell-based
[1] = test system: Haemophilis Influenzae DILL AMP R; settings: organism code WW; BHI agar, 35-37° C., 20 to 24 hours; unit assumed
In short: (§1)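 Antibacterial MIC determined by agar dilution in BHI agar with twelve successive concentrations; controls comprised compound-free plates and a same-class reference antibiotic. MIC: lowest concentration giving no growth, slight haze or sparsely isolated colonies.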

[2] = test system: Staphylococcus aureus NCTC10649M; settings: organism code EE; BHI agar, 35-37° C., 20 to 24 hours; unit assumed
In short: as §1

[3] = test system: Nocardia Asteroides ATCC9970; settings: organism code VV; BHI agar, 35-37° C., 20 to 24 hours; unit assumed
In short: as §1

Escherichia coli DC-2 = settings: organism code SS; BHI agar, 35-37° C., 20 to 24 hours; unit assumed
In short: as §1

[4] = test system: Streptococcus agalactiae CMX 508; settings: organism code KK; BHI agar, 35-37° C., 20 to 24 hours; unit assumed
In short: as §1

[5] = test system: Enterococcus faecium ATCC 8043; settings: organism code II; BHI agar, 35-37° C., 20 to 24 hours; unit assumed
In short: as §1

Escherichia coli JUHL = settings: organism code QQ; BHI agar, 35-37° C., 20 to 24 hours; unit assumed
In short: as §1

Escherichia coli SS = settings: organism code RR; BHI agar, 35-37° C., 20 to 24 hours; unit assumed
In short: as §1

[6] = test system: Streptococcus Pneumonia 5979; settings: organism code ZZ; BHI agar, 35-37° C., 20 to 24 hours; unit assumed
In short: as §1

[7] = test system: Streptococcus Pneumonia ATCC6303; settings: organism code XX; BHI agar, 35-37° C., 20 to 24 hours; unit assumed
In short: as §1

[8] = test system: Staphylococcus aureus CMX 642A; settings: organism code DD; BHI agar, 35-37° C., 20 to 24 hours; unit assumed
In short: as §1

Candida albicans CCH 442 = settings: organism code TT; BHI agar, 35-37° C., 20 to 24 hours; unit assumed
In short: as §1

[9] = test system: Staphylococcus aureus A5177; settings: organism code BB; BHI agar, 35-37° C., 20 to 24 hours; unit assumed
In short: as §1

[10] = test system: Staphylococcus aureus CMX 553; settings: organism code FF; BHI agar, 35-37° C., 20 to 24 hours; unit assumed
In short: as §1

[11] = test system: Streptococcus pyogenes PIU 2548; settings: organism code NN; BHI agar, 35-37° C., 20 to 24 hours; unit assumed
In short: as §1

[12] = test system: Streptococcus pyogenes 930; settings: organism code MM; BHI agar, 35-37° C., 20 to 24 hours; unit assumed
In short: as §1

[13] = test system: Mycobacterium smegmatis ATCC 114; settings: organism code UU; BHI agar, 35-37° C., 20 to 24 hours; unit assumed
In short: as §1

[14] = test system: Staphylococcus epidermidis 3519; settings: organism code HH; BHI agar, 35-37° C., 20 to 24 hours; unit assumed
In short: as §1

[15] = test system: Staphylococcus aureus ATCC 6538P; settings: organism code AA; BHI agar, 35-37° C., 20 to 24 hours; unit assumed
In short: as §1

[16] = test system: Micrococcus luteus ATCC 4698; settings: organism code PP; BHI agar, 35-37° C., 20 to 24 hours; unit assumed
In short: (§2)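 Endpoint: lowest concentration with no growth, slight haze or sparsely isolated colonies at the inoculum spot, judged against a compound-free BHI control. Strains were replicator-inoculated at 1:100 (1:10 for Streptococcus and other slow growers).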

[17] = test system: Streptococcus pyogenes EES61; settings: organism code LL; BHI agar, 35-37° C., 20 to 24 hours; unit assumed
In short: as §1

[18] = test system: Staphylococcus aureus A-5278; settings: organism code CC; BHI agar, 35-37° C., 20 to 24 hours; unit assumed
In short: as §1

[19] = test system: Streptococcus Pneumonia 5649; settings: organism code ZZA; BHI agar, 35-37° C., 20 to 24 hours; unit assumed
In short: as §1

[20] = test system: Micrococcus luteus ATCC 9341; settings: organism code OO; BHI agar, 35-37° C., 20 to 24 hours; unit assumed
In short: as §2

[21] = test system: Streptococcus bovis A-5169; settings: organism code JJ; BHI agar, 35-37° C., 20 to 24 hours; unit assumed
In short: as §1

[22] = test system: Staphylococcus aureus 1775; settings: organism code GG; BHI agar, 35-37° C., 20 to 24 hours; unit assumed
In short: as §1

[23] = test system: Streptococcus Pneumonia GYR 1171; settings: organism code YY; BHI agar, 35-37° C., 20 to 24 hours; unit assumed
In short: as §1

Structure (SMILES) | MIC [1] [µg/mL] | MIC [2] [µg/mL] | MIC [3] [µg/mL] | MIC (Escherichia coli DC-2) [µg/mL] | MIC [4] [µg/mL] | MIC [5] [µg/mL] | MIC (Escherichia coli JUHL) [µg/mL] | MIC (Escherichia coli SS) [µg/mL] | MIC [6] [µg/mL] | MIC [7] [µg/mL] | MIC [8] [µg/mL] | MIC (Candida albicans CCH 442) [µg/mL] | MIC [9] [µg/mL] | MIC [10] [µg/mL] | MIC [11] [µg/mL] | MIC [12] [µg/mL] | MIC [13] [µg/mL] | MIC [14] [µg/mL] | MIC [15] [µg/mL] | MIC [16] [µg/mL] | also measured
CC[C@H]1OC(=O)[C@H](C)C(=O)[C@H](C)[C@@H](O[C@@H]2O[C@H](C)C[C@H](N(C)C)[C@H]2O)[C@](C)(OCC#Cc2ccc(-c3cnc4ccccc4n3)s2)C[C@@H](C)C(=O)[C@H](C)[C@H]2NC(=O)O[C@@]21C [Example 33] | 4 (≈ 4.72 µM) | 0.39 (≈ 0.46 µM) | 0.1 (≈ 0.118 µM) | > 100 | 0.01 (≈ 0.0118 µM) | 0.05 (≈ 0.059 µM) | > 100 | 0.78 (≈ 0.921 µM) | 0.25 (≈ 0.295 µM) | 0.03 (≈ 0.0354 µM) | 0.2 (≈ 0.236 µM) | > 100 | 0.2 (≈ 0.236 µM) | 0.2 (≈ 0.236 µM) | 0.2 (≈ 0.236 µM) | 0.39 (≈ 0.46 µM) | 0.2 (≈ 0.236 µM) | 0.2 (≈ 0.236 µM) | 0.2 (≈ 0.236 µM) | 0.05 (≈ 0.059 µM) | MIC [17]: 0.02 µg/mL (≈ 0.0236 µM); MIC [18]: 25 µg/mL (≈ 29.5 µM); MIC [19]: 0.25 µg/mL (≈ 0.295 µM); MIC [20]: 0.05 µg/mL (≈ 0.059 µM); MIC [21]: 0.01 µg/mL (≈ 0.0118 µM); MIC [22]: 50 µg/mL (≈ 59 µM); MIC [23]: 0.03 µg/mL (≈ 0.0354 µM)
CC[C@H]1OC(=O)[C@H](C)C(=O)[C@H](C)[C@@H](O[C@@H]2O[C@H](C)C[C@H](N(C)C)[C@H]2O)[C@](C)(OCC#Cc2ccc(-c3ccc(F)cc3)s2)C[C@@H](C)C(=O)[C@H](C)[C@H]2NC(=O)O[C@@]21C [Example 22] | 64 (≈ 78.7 µM) | 3.1 (≈ 3.81 µM) | 0.78 (≈ 0.959 µM) | > 100 | 0.39 (≈ 0.48 µM) | 0.78 (≈ 0.959 µM) | > 100 | 25 (≈ 30.8 µM) | 4 (≈ 4.92 µM) | 1 (≈ 1.23 µM) | 3.1 (≈ 3.81 µM) | > 100 | 3.1 (≈ 3.81 µM) | 3.1 (≈ 3.81 µM) | 3.1 (≈ 3.81 µM) | > 100 | 1.56 (≈ 1.92 µM) | 3.1 (≈ 3.81 µM) | 3.1 (≈ 3.81 µM) | 3.1 (≈ 3.81 µM) | MIC [17]: 0.39 µg/mL (≈ 0.48 µM); MIC [18]: > 100 µg/mL; MIC [19]: 4 µg/mL (≈ 4.92 µM); MIC [20]: 0.39 µg/mL (≈ 0.48 µM); MIC [21]: 0.39 µg/mL (≈ 0.48 µM); MIC [22]: > 100 µg/mL; MIC [23]: 1 µg/mL (≈ 1.23 µM)
CC[C@H]1OC(=O)[C@H](C)C(=O)[C@H](C)[C@@H](O[C@@H]2O[C@H](C)C[C@H](N(C)C)[C@H]2O)[C@](C)(OC/C=C/c2cncc(-n3ccnc3)c2)C[C@@H](C)C(=O)[C@H](C)[C@H]2NC(=O)O[C@@]21C [Example 37] | 4 (≈ 5.12 µM) | 0.2 (≈ 0.256 µM) | 0.1 (≈ 0.128 µM) | 50 (≈ 63.9 µM) | 0.02 (≈ 0.0256 µM) | 0.05 (≈ 0.0639 µM) | 50 (≈ 63.9 µM) | 0.39 (≈ 0.499 µM) | > 128 | ≤ 0.004 | 0.1 (≈ 0.128 µM) | > 100 | 0.1 (≈ 0.128 µM) | 0.1 (≈ 0.128 µM) | 0.39 (≈ 0.499 µM) | 25 (≈ 32 µM) | 3.1 (≈ 3.96 µM) | 0.1 (≈ 0.128 µM) | 0.1 (≈ 0.128 µM) | 0.2 (≈ 0.256 µM) | MIC [17]: 0.02 µg/mL (≈ 0.0256 µM); MIC [18]: > 100 µg/mL; MIC [19]: 2 µg/mL (≈ 2.56 µM); MIC [20]: 0.01 µg/mL (≈ 0.0128 µM); MIC [21]: 0.01 µg/mL (≈ 0.0128 µM); MIC [22]: > 100 µg/mL; MIC [23]: ≤ 0.004 µg/mL
